According to patent publication US8735609B2, “Bryostatin analogues, synthetic methods and uses” (The Board of Trustees of the Leland Stanford Junior …, priority 2007, dated 2014):

Legend:
PKCδ-C1B = target: T1, PKCδ-C1B (Mus musculus, UniProt P28867); experiment: PKCδ-C1B assay; type: binding
T1 construct: made in house
Procedure: Phosphatidyl serine vesicles are prepared by the addition of phosphatidyl serine (10 mg/mL in chloroform, 0.4 mL) to a glass test tube followed by removal of the chloroform under a stream of nitrogen (5 min). […] The resulting solution is stored over ice. […] Stock solutions of compounds are diluted with absolute ethanol in glass in serial fashion. […] The tubes are incubated at 37° C. for 90 min. and then put on ice for 5 min. Each tube is then filtered separately through a pre-soaked filter disc. […] The filter is subsequently rinsed with cold 20 mM TRIS buffer (5 mL) dropwise. […] The filters are immediately counted in a scintillation counter (Beckman LS 6000SC). Counts per minute are averaged among three trials at each concentration.

P388 cell line = experiment: P388 murine lymphocytic leukemia cell assay; type: cell-based
Procedure: Cells from a P388 cell line (CellGate, Inc., Sunnyvale, Calif.) are grown in RPMI 1640 cell medium containing fetal calf serum (10%), L-glutamine, penicillin, streptomycin and are split twice weekly. All compounds are first diluted with DMSO. Later serial dilutions are done with a phosphate buffer solution (HYQ DPBS modified phosphate buffered saline). All dilutions are done in glass vials and the final DMSO concentration is always below 0.5% by volume. Final two-fold dilutions are done in a 96 well plate using cell media so that each well contains 50 μL. All compounds are assayed in quadruplicate over 12 concentrations. Cell concentration is measured using a hemacytometer and the final cell concentration is adjusted to 1×10^4 cells/mL with cell medium. The resulting solution of cells (50 μL) is then added to each well and the plates are incubated for 5 days in a 37° C., 5% CO2, humidified incubator (Sanyo CO2 incubator). MTT solution (3-[4,5-dimethylthiazol-2-yl]-2,5-diphenyltetrazolium bromide, 10 μL) is then added to each well and the plates are re-incubated under identical conditions for 2 h. To each well is then added acidified isopropanol (150 μL of i-PrOH solution containing 0.05 N HCl) and mixed thoroughly. The plates are then scanned at 595 nm and the absorbances are read (Wallac Victor 1420 Multilabel Counter). The resulting data is then analyzed to determine an ED50 value using the Prism software package (GraphPad).

[1] = tested on: NCI human cancer cell-lines; experiment: In vitro inhibition of growth in NCI human cancer cell lines (panel); type: cell-based
CCRF-CEM = experiment: NCI human cancer cell line growth inhibition: CCRF-CEM (Leukemia); type: cell-based; conditions: Homo sapiens
HL-60(TB) = experiment: cells; type: cell-based, human; conditions: Homo sapiens, HL-60, read-out: Growth inhibition (GI50)
K-562 = experiment: NCI human cancer cell line growth inhibition: K-562 (Leukemia); type: cell-based; conditions: Homo sapiens, K562
MOLT-4 = experiment: NCI human cancer cell line growth inhibition: MOLT-4 (Leukemia); type: cell-based; conditions: Homo sapiens
SR = experiment: NCI human cancer cell line growth inhibition: SR (Leukemia); type: cell-based; conditions: Homo sapiens
A549/ATCC = experiment: NCI human cancer cell line growth inhibition: A549/ATCC (NSC Lung); type: cell-based; conditions: Homo sapiens
EKVX = experiment: NCI human cancer cell line growth inhibition: EKVX (NSC Lung); type: cell-based; conditions: Homo sapiens
HOP-62 = experiment: NCI human cancer cell line growth inhibition: HOP-62 (NSC Lung); type: cell-based; conditions: Homo sapiens
HOP-92 = experiment: NCI human cancer cell line growth inhibition: HOP-92 (NSC Lung); type: cell-based; conditions: Homo sapiens
NCI-H460 = type: cell-based, human; conditions: Homo sapiens; NCI-H460, NSC Lung; read-out: Growth inhibition (GI50)
COLO 205 = experiment: NCI human cancer cell line growth inhibition: COLO 205 (Colon); type: cell-based; conditions: Homo sapiens
HCC-2998 = experiment: NCI human cancer cell line growth inhibition: HCC-2998 (Colon); type: cell-based; conditions: Homo sapiens
KM12 = experiment: NCI human cancer cell line growth inhibition: KM12 (Colon); type: cell-based; conditions: Homo sapiens
SW-620 = experiment: NCI human cancer cell line growth inhibition: SW-620 (Colon); type: cell-based; conditions: Homo sapiens
SF-268 = experiment: NCI human cancer cell line growth inhibition: SF-268 (CNS); type: cell-based; conditions: Homo sapiens
SF-295 = experiment: NCI human cancer cell line growth inhibition: SF-295 (CNS); type: cell-based; conditions: Homo sapiens
U251 = experiment: NCI human cancer cell line growth inhibition: U251 (CNS); type: cell-based; conditions: Homo sapiens, U-251
DU-145 = experiment: NCI human cancer cell line growth inhibition: DU-145 (Prostate); type: cell-based; conditions: Homo sapiens
LOX IMVI = experiment: NCI human cancer cell line growth inhibition: LOX IMVI (Melanoma); type: cell-based; conditions: Homo sapiens
SK-MEL-2 = experiment: NCI human cancer cell line growth inhibition: SK-MEL-2 (Melanoma); type: cell-based; conditions: Homo sapiens
SK-MEL-28 = experiment: NCI human cancer cell line growth inhibition: SK-MEL-28 (Melanoma); type: cell-based; conditions: Homo sapiens
SK-MEL-5 = experiment: NCI human cancer cell line growth inhibition: SK-MEL-5 (Melanoma); type: cell-based; conditions: Homo sapiens
UACC-257 = experiment: NCI human cancer cell line growth inhibition: UACC-257 (Melanoma); type: cell-based; conditions: Homo sapiens
UACC-62 = experiment: NCI human cancer cell line growth inhibition: UACC-62 (Melanoma); type: cell-based; conditions: Homo sapiens
OVCAR-3 = experiment: NCI human cancer cell line growth inhibition: OVCAR-3 (Ovarian); type: cell-based; conditions: Homo sapiens
OVCAR-4 = experiment: NCI human cancer cell line growth inhibition: OVCAR-4 (Ovarian); type: cell-based; conditions: Homo sapiens
OVCAR-5 = experiment: NCI human cancer cell line growth inhibition: OVCAR-5 (Ovarian); type: cell-based; conditions: Homo sapiens
A498 = experiment: NCI human cancer cell line growth inhibition: A498 (Renal); type: cell-based; conditions: Homo sapiens
TK-10 = experiment: NCI human cancer cell line growth inhibition: TK-10 (Renal); type: cell-based; conditions: Homo sapiens
UO-31 = experiment: NCI human cancer cell line growth inhibition: UO-31 (Renal); type: cell-based; conditions: Homo sapiens
MDA-MB-231/ATCC = experiment: NCI human cancer cell line growth inhibition: MDA-MB-231/ATCC (Breast); type: cell-based; conditions: Homo sapiens
MDA-MB-435 = experiment: NCI human cancer cell line growth inhibition: MDA-MB-435 (Breast); type: cell-based; conditions: Homo sapiens
BT-549 = experiment: NCI human cancer cell line growth inhibition: BT-549 (Breast); type: cell-based; conditions: Homo sapiens
T-47D = experiment: NCI human cancer cell line growth inhibition: T-47D (Breast); type: cell-based; conditions: Homo sapiens, T47D
HS 578T = experiment: NCI human cancer cell line growth inhibition: HS 578T (Breast); type: cell-based; conditions: Homo sapiens

T1 sequence (P28867 231-281 limits assumed): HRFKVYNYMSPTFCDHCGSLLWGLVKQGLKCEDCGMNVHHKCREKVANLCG

## CCCCCCCC(=O)O[C@H]1/C(=C/C(=O)OC)C[C@H]2C[C@H](CO)OC(=O)C[C@H](O)C[C@@H]3CCC[C@H](C[C@@H]4CCO[C@H](/C=C/C(C)(C)[C@]1(O)O2)O4)O3 [Formula IIa (702.1)]
PKCδ-C1B
  Ki: 0.0003 ± 7e-05 µM
PKCδ-C1B; vs Formula 1998a where R^3 is OH
  activity in PKCδ-C1B assay compared with the corresponding C26 methyl-containing analogue: significantly higher activity
P388 cell line
  activity in P388 assay compared with the corresponding C26 methyl-containing analogue: significantly higher activity
P388 cell line; Mus musculus, P388, 120 h, read-out: P388 Assay ED50
  EC50: 0.017 µM
[1]; K-562, MOLT-4, NCI-H460, HCC-2998, TK-10, MDA-MB-435
  more active than bryostatin-1: more than 2 orders of magnitude
[1]; all cell groups tested
  potency compared with bryostatin-1, on average: at least as potent, on average, as bryostatin-1
CCRF-CEM
  GI50: 1.55 µM
HL-60(TB)
  GI50: 1.45 µM
K-562
  GI50: 0.0316 µM
MOLT-4
  GI50: < 0.01 µM
SR
  GI50: 7.94 µM
A549/ATCC
  GI50: 0.24 µM
EKVX
  GI50: 2.63 µM
HOP-62
  GI50: 16.2 µM
HOP-92
  GI50: 21.4 µM
NCI-H460
  GI50: < 0.01 µM
COLO 205
  GI50: 0.0832 µM
HCC-2998
  GI50: 0.0288 µM
KM12
  GI50: 4.57 µM
SW-620
  GI50: 7.59 µM
SF-268
  GI50: 10.7 µM
SF-295
  GI50: 0.891 µM
U251
  GI50: 3.98 µM
DU-145
  GI50: 9.55 µM
LOX IMVI
  GI50: 3.39 µM
SK-MEL-2
  GI50: 9.55 µM
SK-MEL-28
  GI50: 21.4 µM
SK-MEL-5
  GI50: 0.372 µM
UACC-257
  GI50: 7.41 µM
UACC-62
  GI50: 7.76 µM
OVCAR-3
  GI50: 14.8 µM
OVCAR-4
  GI50: 7.08 µM
OVCAR-5
  GI50: 5.25 µM
A498
  GI50: 0.417 µM
TK-10
  GI50: 0.0933 µM
UO-31
  GI50: 14.1 µM
MDA-MB-231/ATCC
  GI50: 2.04 µM
MDA-MB-435
  GI50: 0.0219 µM
BT-549
  GI50: 19.5 µM
T-47D
  GI50: 9.55 µM
HS 578T
  GI50: 6.61 µM
